{"source": "patent US10000791B2", "about": "“Measurement method for human pancreatic lipase activity” (ASAHI KASEI PHARMA CORPORATION, priority 2013, dated 2018)", "tested_on": "human pancreatic lipase", "assay": "pH dependence of human pancreatic lipase activity in the presence of bile acids (diglyceride substrate, UV method)", "assay_type": "biochemical", "protocol": "After weighing 1,2-dioleoyl glycerol (DODG) (manufactured by Nippon Fine Chemical Co., Ltd.) to attain a concentration of 9.32 mmol/L when dissolved, 1% polyoxyethylene (10) nonyl phenyl ether (NPE) (manufactured by Wako Pure Chemical Industries Ltd.) containing 1.66 mmol/L of MES (manufactured by Dojindo Laboratories) was added thereto to be dissolved therein by stirring at 37° C. for 2 hours, and the resultant was allowed to stand still in ice for 2 hours or more. The thus obtained solution was used as a substrate original liquid.\nThe above-described diglyceride original liquid was used for preparing a “substrate stock solution” having the following composition:\nA “first reaction solution (R-1)” having the following composition was prepared:\nA “second reaction solution (R-2)” having the following composition was prepared:\nA “second reaction solution (R-2) for sample blank” having the following composition was prepared:\nA mixture of the substrate stock solution and the R-1 in a proportion of 1:2 was used as a first reagent. The R-2 was directly used as a second reagent. As a sample, pooled serum or a control sample (a control containing a pancreatic lipase) was used. A proportion in amount among the sample, the first reagent and the second reagent was set as sample:first reagent:second reagent of 0.01 ml:0.18 ml:0.06 ml. The sample was added to the first reagent, the resultant mixture was heated at 37° C. for 5 minutes, the second reagent was added thereto, and a change rate of an absorbance at 340 nm based on reduced NADP was obtained at 37° C. from 3 minutes after the addition of the second reagent to 4 minutes after the addition, and then, the lipase activity was calculated by using a molecular extinction coefficient of 6300 L/mol·cm of the reduced NADP. Besides, as a sample blank, saline was used instead of a sample, an absorbance was measured by using the reagent for sample blank obtained by removing MGLPII from the second reagent, and a difference between the thus measured two values was defined as an enzyme activity value. For the measurement, Hitachi automatic analyzer Model H7170 or H7080 was used.\nAs a conjugated bile acid to be added to the R-1, sodium taurodeoxycholate (NaTDCA), sodium glycodeoxycholate (NaGDCA), sodium glycochenodeoxycholate (NaGCDCA), sodium taurochenodeoxycholate (NaTCDCA), sodium glycocholate (NaGCA), sodium taurocholate (NaTCA) and sodium tauroursodeoxycholate (NaTUDCA) all in a concentration of 40 mmol/L were selected, the R-1 was adjusted, by using BES (manufactured by Dojindo Laboratories) respectively to pH 6.8, 7.0, 7.2, 7.4, 7.8, and 8.0, and the human pancreatic lipase activity was measured by using these. The pH of the R-2 was adjusted to be equal to that of the R-1.\nIt is noted that the concentration of each non-conjugated bile acid was set to be 24 mmol/L in the R-1. Besides, BES was used for adjusting pH to 7.2, 7.6, 7.8 and 8.0, and Bicine was used for adjusting pH to 8.2 and 8.5.\nSimilarly to Example 1, a mixture of the substrate stock solution and the R-1 in a proportion of 1:2 was used as a first reagent. Except for this, the measurement was performed in the same manner as in Example 1.\nBesides, NaTCA was also combined with a conjugated bile acid, NaTDCA, to examine the pH for giving a maximum value of the human pancreatic lipase activity (the apparent optimum pH). It is noted that a BES buffer was used for adjusting pH to 6.9, 7.2 and 7.7, and a Bicine buffer was used for adjusting pH to 7.95 and 8.2. In each of the combinations of NaGCA/NaDCA, NaTCA/NaDCA, NaTUDCA/NaDCA and NaTCA/NaTDCA, the concentration of each bile acid was set to 20 mmol/L in the R-1. With respect to the combination of NaTCA and NaTDCA, a concentration of 40 mmol/L of NaTDCA was used as a control.\nThe compositions of the reagents and the measurement operation were the same as those of Example 2.", "data": [{"smiles": "C[C@H](CCC(=O)NCCS(=O)(=O)[O-])[C@H]1CC[C@H]2[C@@H]3CC[C@@H]4C[C@H](O)CC[C@]4(C)[C@H]3C[C@H](O)[C@]12C.[Na+]", "note": "[NaTDCA, sodium taurodeoxycholate]", "values": [{"measurement": "optimum pH", "setting": "NaTDCA 40 mmol/L control of Example 2", "value": "about 7.1"}, {"measurement": "pH for giving a maximum value of the human pancreatic lipase activity (apparent optimum pH)", "setting": "pooled serum, conjugated bile acid singly, 40 mmol/L in R-1, BES pH 6.8-8.0", "value": "about 7"}]}]}
